From ChEMBL document CHEMBL1201862, “PubChem BioAssay data set” (2004)
The source made the active and inactive calls. For most assays here, no stated cut-off is given here; in the data, actives have a measured IC50 and inactives only a lower limit.

Legend:
Hexokinase = target: T1, Hexokinase (Trypanosoma brucei, UniProt Q38C41); test: Confirmation assay for inhibitors of Trypanosoma brucei hexokinase 1-Analogue-first series. [Related pubchem assays (depositor defined):AID1430, AID1632, AID2516, AID2560, AID2579, AID2600, AID449725, AID492951]; type: functional
T1 sequence (Q38C41 whole entry): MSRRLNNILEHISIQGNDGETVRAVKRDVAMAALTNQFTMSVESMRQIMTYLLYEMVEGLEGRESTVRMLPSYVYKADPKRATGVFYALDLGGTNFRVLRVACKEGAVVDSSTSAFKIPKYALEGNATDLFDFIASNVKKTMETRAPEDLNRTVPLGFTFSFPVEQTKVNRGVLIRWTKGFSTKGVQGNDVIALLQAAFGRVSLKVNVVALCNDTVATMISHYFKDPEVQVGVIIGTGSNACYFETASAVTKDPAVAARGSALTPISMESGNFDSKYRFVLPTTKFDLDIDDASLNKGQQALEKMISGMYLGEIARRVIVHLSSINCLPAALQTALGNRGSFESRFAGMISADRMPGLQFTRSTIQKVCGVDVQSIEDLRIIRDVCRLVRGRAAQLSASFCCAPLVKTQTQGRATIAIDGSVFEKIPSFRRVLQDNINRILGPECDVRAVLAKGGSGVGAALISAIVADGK

Tumor necrosis factor = Tumor necrosis factor (Homo sapiens, UniProt P01375); test: TNFa-triggered NF-kB activation inhibitors, SAR follow-up, cell-based, revised (AID 2337); type: functional
[1] = target: T2, Nucleotide-binding oligomerization domain-containing protein 1 (Homo sapiens, UniProt Q9Y239); test: NOD1 signaling inhibitors, SAR follow-up, revised (AID 2333); type: functional
T2 sequence (Q9Y239 whole entry): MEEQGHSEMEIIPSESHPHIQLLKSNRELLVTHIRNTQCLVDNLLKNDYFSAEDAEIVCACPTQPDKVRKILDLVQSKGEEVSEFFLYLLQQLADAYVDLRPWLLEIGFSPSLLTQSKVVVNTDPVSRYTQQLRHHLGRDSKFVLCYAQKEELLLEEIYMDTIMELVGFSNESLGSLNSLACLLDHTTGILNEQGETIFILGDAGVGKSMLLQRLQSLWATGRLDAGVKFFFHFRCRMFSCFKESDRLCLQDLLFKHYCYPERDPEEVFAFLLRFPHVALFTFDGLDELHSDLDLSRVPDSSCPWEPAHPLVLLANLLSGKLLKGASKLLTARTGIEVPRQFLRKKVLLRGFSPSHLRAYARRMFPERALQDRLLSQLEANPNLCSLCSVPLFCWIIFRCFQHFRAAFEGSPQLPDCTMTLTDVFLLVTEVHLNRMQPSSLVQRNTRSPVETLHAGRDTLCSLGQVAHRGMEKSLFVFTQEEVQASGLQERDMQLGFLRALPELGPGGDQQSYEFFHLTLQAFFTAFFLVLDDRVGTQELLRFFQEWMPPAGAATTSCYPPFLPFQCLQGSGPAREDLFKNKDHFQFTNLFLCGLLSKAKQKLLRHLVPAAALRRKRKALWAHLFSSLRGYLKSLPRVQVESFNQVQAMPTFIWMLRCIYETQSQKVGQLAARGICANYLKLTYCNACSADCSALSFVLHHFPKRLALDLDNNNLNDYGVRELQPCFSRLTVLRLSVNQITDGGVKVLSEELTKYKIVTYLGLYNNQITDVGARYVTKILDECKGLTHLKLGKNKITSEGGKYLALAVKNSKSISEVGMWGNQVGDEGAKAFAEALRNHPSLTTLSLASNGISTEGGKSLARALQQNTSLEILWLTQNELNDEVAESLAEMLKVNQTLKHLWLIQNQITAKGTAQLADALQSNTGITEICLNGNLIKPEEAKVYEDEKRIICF

HEK293 = test: cells; conditions: Homo sapiens;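 further: cells exposed to compound for 14 hours overnight before viability readout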
[2] = target: Nucleotide-binding oligomerization domain-containing protein 2 (Homo sapiens, UniProt Q9HC29); test: PubChem AID 2334; type: functional
[3] = target: T3, High affinity choline transporter 1 (Homo sapiens, UniProt Q9GZV3); test: CHT inhibitors, dose response, cell-based, 5-point CRC, membrane potential dye (AID 504840); type: functional
T3 sequence (Q9GZV3 whole entry): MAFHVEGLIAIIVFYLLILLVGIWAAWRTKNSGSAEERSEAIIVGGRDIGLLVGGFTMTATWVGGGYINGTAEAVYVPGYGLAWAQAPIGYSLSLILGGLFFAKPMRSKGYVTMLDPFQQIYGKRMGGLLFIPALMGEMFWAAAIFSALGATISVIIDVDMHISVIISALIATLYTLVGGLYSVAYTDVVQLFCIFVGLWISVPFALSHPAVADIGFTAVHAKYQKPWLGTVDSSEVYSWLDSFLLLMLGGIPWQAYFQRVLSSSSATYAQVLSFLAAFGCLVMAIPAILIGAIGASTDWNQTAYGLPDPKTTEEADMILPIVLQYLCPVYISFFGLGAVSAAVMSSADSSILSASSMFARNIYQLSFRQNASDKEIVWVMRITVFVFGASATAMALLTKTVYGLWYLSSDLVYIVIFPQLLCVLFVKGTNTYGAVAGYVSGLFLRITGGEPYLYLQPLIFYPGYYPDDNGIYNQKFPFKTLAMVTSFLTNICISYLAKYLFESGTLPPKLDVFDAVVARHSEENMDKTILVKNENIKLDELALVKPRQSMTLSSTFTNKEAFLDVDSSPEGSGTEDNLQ

[4] = target: T4, Alkaline phosphatase, tissue-nonspecific isozyme (Homo sapiens, UniProt P05186); test: human TNAP enzyme inhibitors, SAR follow-up, biochemical, luminescent, dose response (AID 1056)
T4 sequence (P05186 whole entry): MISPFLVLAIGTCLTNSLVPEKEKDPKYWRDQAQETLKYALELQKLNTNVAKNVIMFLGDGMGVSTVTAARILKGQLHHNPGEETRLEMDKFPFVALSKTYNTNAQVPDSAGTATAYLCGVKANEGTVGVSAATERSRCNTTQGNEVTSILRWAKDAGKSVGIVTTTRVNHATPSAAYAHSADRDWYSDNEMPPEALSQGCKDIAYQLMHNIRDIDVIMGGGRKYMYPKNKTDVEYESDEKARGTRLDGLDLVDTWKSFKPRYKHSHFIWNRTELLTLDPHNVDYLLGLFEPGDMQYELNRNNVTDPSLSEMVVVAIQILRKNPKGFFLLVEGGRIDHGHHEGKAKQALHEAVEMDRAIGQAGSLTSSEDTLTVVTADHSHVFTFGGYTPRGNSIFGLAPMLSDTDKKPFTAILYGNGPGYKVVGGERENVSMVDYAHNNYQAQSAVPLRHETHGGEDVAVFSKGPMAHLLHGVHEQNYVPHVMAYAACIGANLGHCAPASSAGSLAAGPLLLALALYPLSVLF

[5] = target: Glyceraldehyde-3-phosphate dehydrogenase (Homo sapiens, UniProt P04406)
[6] = target: Alkaline phosphatase, placental type (Homo sapiens, UniProt P05187); test: PLAP enzyme inhibitors, confirmation, biochemical, luminescence (AID 1512); type: functional
[7] = target: Peroxisome proliferator-activated receptor gamma/Nuclear receptor coactivator 2 (Homo sapiens, UniProt P37231); type: functional;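 further: agonist potency for raising coactivator recruitment to the receptor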
[8] = target: Peroxisome proliferator-activated receptor gamma/Nuclear receptor coactivator 3 (Homo sapiens, UniProt P37231); type: functional;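 further: agonist potency for raising coactivator recruitment to the receptor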
[9] = target: Peroxisome proliferator-activated receptor gamma/Nuclear receptor coactivator 1 (Homo sapiens, UniProt P37231); type: functional;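 further: agonist potency as compounds enhance coactivator SRC-1 recruitment to PPARgamma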
[10] = target: G-protein coupled receptor 55 (Homo sapiens, UniProt Q9Y2T6); test: GPR55 agonists via beta-arrestin recruitment, primary screen, imaging, U2OS cells, beta-arrestin-GFP redistribution (AID 1961); type: functional
G-protein coupled receptor 55, sequence (Q9Y2T6 whole entry): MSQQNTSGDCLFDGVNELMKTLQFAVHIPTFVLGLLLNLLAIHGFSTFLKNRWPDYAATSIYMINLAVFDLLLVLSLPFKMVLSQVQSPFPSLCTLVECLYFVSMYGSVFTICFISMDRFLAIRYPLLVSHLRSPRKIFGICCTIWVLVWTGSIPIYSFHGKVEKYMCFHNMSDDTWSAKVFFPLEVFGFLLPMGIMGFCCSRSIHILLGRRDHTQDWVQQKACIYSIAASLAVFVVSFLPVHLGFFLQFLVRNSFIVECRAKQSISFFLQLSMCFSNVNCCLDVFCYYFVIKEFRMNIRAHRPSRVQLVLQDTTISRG

Nucleotide-binding oligomerization domain-containing protein 2, sequence (Q9HC29 whole entry, the tested form may be a part): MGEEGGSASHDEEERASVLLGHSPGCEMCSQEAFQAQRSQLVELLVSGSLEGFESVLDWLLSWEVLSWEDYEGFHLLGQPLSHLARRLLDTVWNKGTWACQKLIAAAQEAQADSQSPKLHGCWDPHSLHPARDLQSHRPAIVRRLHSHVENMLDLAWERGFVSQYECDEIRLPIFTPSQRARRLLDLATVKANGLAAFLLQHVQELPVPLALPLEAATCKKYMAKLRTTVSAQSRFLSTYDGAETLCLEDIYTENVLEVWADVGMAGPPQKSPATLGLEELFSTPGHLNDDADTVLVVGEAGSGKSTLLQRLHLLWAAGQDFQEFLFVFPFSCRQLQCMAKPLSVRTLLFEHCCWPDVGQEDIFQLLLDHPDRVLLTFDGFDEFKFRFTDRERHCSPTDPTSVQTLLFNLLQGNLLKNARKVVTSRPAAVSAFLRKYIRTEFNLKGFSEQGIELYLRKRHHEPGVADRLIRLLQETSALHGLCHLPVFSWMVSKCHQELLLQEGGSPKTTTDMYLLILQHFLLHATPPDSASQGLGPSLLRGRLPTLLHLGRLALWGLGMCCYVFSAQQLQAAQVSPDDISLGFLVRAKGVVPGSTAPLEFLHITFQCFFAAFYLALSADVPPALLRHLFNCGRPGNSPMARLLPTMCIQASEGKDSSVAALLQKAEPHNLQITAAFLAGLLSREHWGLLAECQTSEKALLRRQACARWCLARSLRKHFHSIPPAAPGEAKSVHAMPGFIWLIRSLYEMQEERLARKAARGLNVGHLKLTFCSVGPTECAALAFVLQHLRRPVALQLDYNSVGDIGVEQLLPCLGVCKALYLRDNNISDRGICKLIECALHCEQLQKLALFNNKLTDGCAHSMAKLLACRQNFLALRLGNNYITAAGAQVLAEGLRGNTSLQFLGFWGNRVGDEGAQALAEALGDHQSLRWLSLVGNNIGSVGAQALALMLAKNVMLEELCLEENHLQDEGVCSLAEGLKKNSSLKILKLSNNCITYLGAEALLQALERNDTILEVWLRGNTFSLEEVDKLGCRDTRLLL
Tumor necrosis factor, sequence (P01375 whole entry, the tested form may be a part): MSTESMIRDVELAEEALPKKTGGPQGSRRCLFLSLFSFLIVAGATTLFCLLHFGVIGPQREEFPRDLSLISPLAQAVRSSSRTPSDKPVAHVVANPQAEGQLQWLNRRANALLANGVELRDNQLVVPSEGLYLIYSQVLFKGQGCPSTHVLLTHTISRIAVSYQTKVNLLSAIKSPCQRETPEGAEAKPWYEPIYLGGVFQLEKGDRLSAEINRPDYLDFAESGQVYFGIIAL
Glyceraldehyde-3-phosphate dehydrogenase, sequence (P04406 whole entry): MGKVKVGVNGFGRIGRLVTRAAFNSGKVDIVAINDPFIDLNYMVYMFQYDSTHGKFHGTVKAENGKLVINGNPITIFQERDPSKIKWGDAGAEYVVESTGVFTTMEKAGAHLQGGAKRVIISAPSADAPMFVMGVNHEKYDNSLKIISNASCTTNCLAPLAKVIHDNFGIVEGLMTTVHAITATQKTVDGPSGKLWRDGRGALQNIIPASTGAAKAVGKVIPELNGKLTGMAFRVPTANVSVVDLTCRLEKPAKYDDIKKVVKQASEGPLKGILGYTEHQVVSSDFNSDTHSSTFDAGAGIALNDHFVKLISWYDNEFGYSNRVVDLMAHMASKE
Alkaline phosphatase, placental type, sequence (P05187 whole entry): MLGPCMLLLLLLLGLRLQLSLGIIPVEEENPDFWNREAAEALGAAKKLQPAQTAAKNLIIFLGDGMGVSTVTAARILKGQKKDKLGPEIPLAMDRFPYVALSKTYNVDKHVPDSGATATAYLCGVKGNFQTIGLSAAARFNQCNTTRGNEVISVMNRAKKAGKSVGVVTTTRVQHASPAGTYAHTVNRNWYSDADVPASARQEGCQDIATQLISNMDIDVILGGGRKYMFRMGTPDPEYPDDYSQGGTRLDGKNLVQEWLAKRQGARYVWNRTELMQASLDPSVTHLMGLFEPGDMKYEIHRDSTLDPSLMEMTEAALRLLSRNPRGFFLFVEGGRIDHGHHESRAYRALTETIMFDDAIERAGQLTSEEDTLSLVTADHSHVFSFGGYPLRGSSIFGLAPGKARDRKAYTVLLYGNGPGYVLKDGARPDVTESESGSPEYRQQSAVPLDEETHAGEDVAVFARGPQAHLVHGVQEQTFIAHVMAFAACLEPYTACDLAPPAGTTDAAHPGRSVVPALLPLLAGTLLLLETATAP
Peroxisome proliferator-activated receptor gamma/Nuclear receptor coactivator 3, sequence (P37231 whole entry): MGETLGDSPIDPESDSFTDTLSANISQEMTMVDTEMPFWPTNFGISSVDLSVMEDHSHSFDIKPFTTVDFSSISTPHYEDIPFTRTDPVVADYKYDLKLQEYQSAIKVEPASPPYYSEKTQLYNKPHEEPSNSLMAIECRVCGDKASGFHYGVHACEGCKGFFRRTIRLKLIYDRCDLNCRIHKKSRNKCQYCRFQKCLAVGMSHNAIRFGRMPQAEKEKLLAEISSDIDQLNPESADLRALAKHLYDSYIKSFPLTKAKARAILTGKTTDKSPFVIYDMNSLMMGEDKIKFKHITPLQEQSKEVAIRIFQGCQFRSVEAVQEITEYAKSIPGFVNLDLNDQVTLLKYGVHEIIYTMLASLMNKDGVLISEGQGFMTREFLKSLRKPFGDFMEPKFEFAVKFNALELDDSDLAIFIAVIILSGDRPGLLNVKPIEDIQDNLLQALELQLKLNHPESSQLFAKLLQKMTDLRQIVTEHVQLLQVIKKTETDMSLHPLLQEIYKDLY
Peroxisome proliferator-activated receptor gamma/Nuclear receptor coactivator 3, sequence (Q9Y6Q9 whole entry, further chain): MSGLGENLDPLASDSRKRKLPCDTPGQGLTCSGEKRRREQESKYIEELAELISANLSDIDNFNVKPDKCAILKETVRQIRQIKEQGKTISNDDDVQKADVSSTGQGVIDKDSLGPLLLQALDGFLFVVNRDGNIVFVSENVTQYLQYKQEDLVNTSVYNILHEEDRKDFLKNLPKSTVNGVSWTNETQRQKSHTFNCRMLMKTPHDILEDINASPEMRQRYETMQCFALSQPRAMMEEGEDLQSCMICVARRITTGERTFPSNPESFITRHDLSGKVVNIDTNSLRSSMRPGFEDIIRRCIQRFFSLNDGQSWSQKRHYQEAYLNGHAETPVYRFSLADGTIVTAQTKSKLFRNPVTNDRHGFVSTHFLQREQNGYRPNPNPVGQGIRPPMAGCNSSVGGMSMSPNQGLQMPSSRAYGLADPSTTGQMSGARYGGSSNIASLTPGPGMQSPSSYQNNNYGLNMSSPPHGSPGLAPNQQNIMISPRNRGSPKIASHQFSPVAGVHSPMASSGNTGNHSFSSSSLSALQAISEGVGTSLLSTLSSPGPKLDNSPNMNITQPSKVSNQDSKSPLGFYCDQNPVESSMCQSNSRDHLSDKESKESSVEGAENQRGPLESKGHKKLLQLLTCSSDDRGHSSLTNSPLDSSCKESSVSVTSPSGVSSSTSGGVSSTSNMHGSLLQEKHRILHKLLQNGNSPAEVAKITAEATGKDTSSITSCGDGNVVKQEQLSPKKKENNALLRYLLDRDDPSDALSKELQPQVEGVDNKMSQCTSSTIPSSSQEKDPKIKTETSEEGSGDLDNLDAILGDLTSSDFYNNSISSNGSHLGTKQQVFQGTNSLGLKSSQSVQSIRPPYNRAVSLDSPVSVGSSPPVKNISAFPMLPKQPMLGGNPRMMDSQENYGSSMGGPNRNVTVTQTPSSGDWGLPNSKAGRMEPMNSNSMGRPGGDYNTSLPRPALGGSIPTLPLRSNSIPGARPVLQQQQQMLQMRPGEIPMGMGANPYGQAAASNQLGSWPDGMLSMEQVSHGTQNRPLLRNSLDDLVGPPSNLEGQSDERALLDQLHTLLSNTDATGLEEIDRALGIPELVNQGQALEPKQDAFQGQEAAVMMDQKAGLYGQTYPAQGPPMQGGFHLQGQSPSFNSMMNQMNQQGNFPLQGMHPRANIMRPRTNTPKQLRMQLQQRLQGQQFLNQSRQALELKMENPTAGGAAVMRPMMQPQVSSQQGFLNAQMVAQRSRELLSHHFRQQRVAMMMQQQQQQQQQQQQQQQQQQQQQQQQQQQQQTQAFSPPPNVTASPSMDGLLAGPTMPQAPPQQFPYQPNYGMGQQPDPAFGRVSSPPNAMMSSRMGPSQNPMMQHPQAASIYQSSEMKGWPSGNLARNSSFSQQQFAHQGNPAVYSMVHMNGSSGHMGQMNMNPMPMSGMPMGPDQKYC

Row | Compound | IC50 (Tumor necrosis factor) | IC50 [1] | IC50 (HEK293) | IC50 [2] | other results
1 | COc1ccc(C(=O)Nc2cc(F)ccc2C(=O)O)cc1 |  |  |  |  | IC50 (Hexokinase): 24.8 µM (active)
2 | CCc1cc(C(=O)NC2CCCc3c2cnn3-c2ccccc2F)no1 (stereo unspecified) | > 20 µM (inactive) | 17.5 µM (active) | > 20 µM (inactive) | > 20 µM (inactive) | 
3 | Cn1nccc1C(=O)N[C@H]1CCCc2c1cnn2-c1ccccc1F | 0.994 µM (active) | 0.781 µM (active) | > 20 µM (inactive) | 1.12 µM (active) | 
4 | CCOc1ccc(C(=O)NC2CCCc3c2cnn3-c2ccccc2F)cc1 (stereo unspecified) | > 20 µM (inactive) | 12.8 µM (active) | > 20 µM (inactive) | 18.5 µM (active) | 
5 | Cc1ccc(-c2nnc(N3CC(C)OC(C)C3)c3ccccc23)cc1 (stereo unspecified) |  |  |  |  | IC50 [3]: 17.4 µM (active)
6 | O=C(c1cc(-c2cc(F)c(Cl)cc2Cl)n[nH]1)N1CCOCC1 |  |  |  |  | IC50 [4]: 3.37 µM (active); IC50 [5]: > 100 µM (not active); IC50 [6]: > 100 µM (inactive)
7 | O=S(=O)(c1ccccc1)c1nc(-c2ccco2)oc1N1CCOCC1 |  |  |  |  | EC50 [7]: > 79.4 µM (not active); EC50 [8]: > 79.4 µM (not active); EC50 [9]: 85.1 µM (not active)
8 | CN1/C(=C\C(=O)COC(=O)c2ccccc2O)C(C)(C)c2ccccc21 |  |  |  |  | EC50 [10]: 1.67 µM (active)
